The values that follow come from paper PMC12566971, “Polyprenylated Acylphloroglucinols from Hypericum rochelii and Hypericum olympicum—Cytotoxic Effects on Non-Tumorigenic Cell Lines and Antibacterial Potential” (Pharmaceuticals, 2025).

Each structure is given as a SMILES string.

This experiment deals with CCL-1 and HGF cells. The experiment in a line: Western blot for autophagy proteins Atg5, Atg7, LC3A/B. Type of experiment: cell-based. The note with it: 24 h; erufosine 30 µM, HirDM90 IC50. On the procedure:
For Western blot, CCL-1 and HGF cell lines were chosen, and they were seeded in either 6-well plates or 55 mm Petri dishes suitable for cell culture. They were treated with an exposure time of 24 h in an incubator (Panasonic MCO-18AC, Panasonic Healthcare Ltd., […], Japan). […] Hans-Jörg Eibl. In addition, a higher concentration of an […] added to one of the tests for comparison. The samples were trypsinized, collected, washed with PBS (TS1101, HiMedia, Mumbai, India), centrifuged, and frozen at -80 °C if storage was necessary. Then they were lysed on ice with a buffer containing 100 mM Tris-HCl (648313, Sigma-Aldrich, St. Louis, MO, USA) at pH 8.0, 4% sodium dodecyl sulfate (SDS, […], Sigma-Aldrich), 20% glycerol (49779, Sigma-Aldrich), 1% Na3VO4 (450243, Sigma-Aldrich), 200 mM dithiothreitol (DTT, 3483-12-3, Sigma-Aldrich, Burlington, MA, USA) supplemented with protease inhibitor (05892970001, Roche). The cell lysate was heated to boiling for 15 min, then centrifuged at 13,000 rpm for 10 min at 4 °C. Lysates were subjected to denaturing SDS polyacrylamide gel electrophoresis on acrylamide 4-20% gradient Mini-PROTEAN® TGXTM Stain-Free gels (4568094, Bio-Rad Laboratories, Hercules, CA, USA). […] Densitometric calculation and analysis was performed with Quantity One software version 4.6.9 (Bio-Rad Laboratories).
(In general: A western blot detects proteins with antibodies after separation by electrophoresis.)

`CCCCCCCC/C=C\CCCCCCCCCCCCOP(=O)([O-])OCC[N+](C)(C)C` [erufosine]: the “Conversion of LC3A/B to the lower migrating form” value is given as “converted to the lower migrating form visibly”.
